From patent publication US7250397B2, “Antiarrhythmic peptides” (Zealand Pharma A/S, priority 2000, dated 2007)
[ ]: non-standard residue; d: D form. Hyp = O=C(O)[C@@H]1C[C@@H](O)CN1

What was measured:
human osteoblastic cells = assay: Lucifer Yellow dye transfer in DDT-treated human osteoblast cells; format: cell-based; details: DDT 13 μM, 60 minutes; control 14.5 cells
Method: Human osteoblast cells: Cells were isolated from human bone marrow obtained by puncture of the posterior iliac spine of healthy volunteers (aged 20-36): 10-15 ml marrow material was collected in 15 ml PBS+Ca, Mg (Life Technologies, Cat.No. 14040) with 100 U/ml Heparin (Sigma, Cat.No. H-3149). The mononuclear fraction of the marrow was isolated on a Lymphoprep gradient (Nycomed Pharma, Cat.No. 1001967), by centrifugation at 2200 rpm for 30 min. After harvesting, the mononuclear fraction was washed once with culture medium and centrifuged at 1800 rpm for 10 min. Subsequently cells were counted and plated in culture medium at 8×10^6 cells/100 mm dish. hOB medium (all reagents obtained from Life Technologies): MEM w/o Phenol Red w/Glutamax (Cat.No. 041-93013) supplemented with 10% heat inactivated fetal calf serum (Cat.No. 10106) and 0.1% Penicillin/Streptomycin (Cat.No. 15140). Medium was changed the following day and the cells were cultured at 37° C. in 5%CO2 with medium change every 7 days. After 3-4 weeks of culture the cells had reached 70% confluence. The medium was then supplemented with 100 nM Dexamethasone (Sigma, Cat.No. D-4902) for 7 days. […]
The dye Lucifer Yellow (LY) was injected into one single human osteoblast in a monolayer. After 30 seconds, the number of cells containing dye was assessed. […]

[1] = In vitro stability test in rabbit plasma (heparin); format: in vitro ADME; details: 37° C., 0.1 mg/ml, mean n=3
Method: (§1) The stability of peptides is analysed in different plasma and serum types. The peptides are incubated at 37° C. in plasma and samples taken at approx. 9 regular intervals between t=0 and t=156 min are analysed by HPLC.
(§2) This is done by subsequent injections of the drug, plasma, and a co-injection with the drug and the plasma, followed by optimisation of the LC method parameters until a satisfactory separation is obtained. Three parallel experiments are performed for each plasma type:100 μl of peptide is mixed with 900 μl plasma at t=0 and incubated at 37° C. (drug-plasma mixture conc. 0.1 mg/ml). Samples of 100 μl of the drug-plasma mixture are removed at appropriate intervals and the degradation stopped by precipitation of the sample with 10 μl MeCN:TFA 50:50 v/v. A control plasma sample without the drug treated in the same manner is also taken. The plasma samples are centrifuged for 15 min. at 12,000 rpm (Eppendorf centrifuge) at ambient temperature. The resulting supernatant solution is transferred to 300 μl HP autosamler vials and analyzed by HPLC. […] Temp.: 40° C. • Solvent: MeCN/MQW/TFA (0.1%). Run time: 25 min. • Inj.vol.:15 μL. […]
(§3) The samples are analyzed in the following order: blank, the peptide at 0.1 mg/mL, the plasma without the peptide, the three parallel samples for t=0, the three parallel samples for t=5 min. the three parallel samples for t=10 min. etc. […]

[2] = In vitro stability test in human serum; format: in vitro ADME; details: 37° C., 0.1 mg/ml, mean n=3
Method: as §1, §2, §3

Row | Molecule | median number of cells containing dye (human osteoblastic cells) | T1/2 [1] | T1/2 [2]
1 | Clc1ccc(C(c2ccc(Cl)cc2)C(Cl)(Cl)Cl)cc1 [DDT, 1,1-bis(p-chlorophenyl)-2,2,2-trichlorethane] | 7 cells |  | 
2 | H-PYNGAG[Hyp]-NH2 [Compound 27] |  | 3.8 h | 3.1 h
